From patent US10206394B2, “Herbicidal compounds” (Syngenta Participations AG, priority 2014, dated 2019)
Like-named read-outs stand apart in the source and are kept apart here.

How the values were obtained:
Assay in all cases: Glasshouse assay for herbicidal activity (pre- and post-emergence), percentage phytotoxicity
Format in all cases: in vivo
Lolium perenne (LOLPE) = details: Lolium perenne
Outline: (§1)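 Damage was rated visually as percent phytotoxicity, 100% meaning total kill, 20 days after pre-emergence application (made one day post-sowing) or 15 days after post-emergence application (made about 12 days post-sowing). Plants were grown under 16 h light, 65% humidity, warm species 24/18° C, cool 20/16° C.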

[1] = system: Echinochloa crus-galli (ECHCG); details: Echinochloa crus-galli
Outline: as §1

Avena fatua (AVEFA) = details: Avena fatua
Outline: as §1

[2] = system: Alopecurus myosuroides (ALOMY); details: Alopecurus myosuroides
Outline: as §1

[3] = post-emergence, 360 h, Rate 250 g/ha, post-emergence, assessed visually 15 DAA, 100%=total damage, 0%=no damage, read-out: Post-emergence herbicidal activity (percentage phytotoxicity) LOLPE POST
[4] = pre-emergence, 480 h, Rate 250 g/ha, pre-emergence, assessed visually 20 DAA, 100%=total damage, 0%=no damage, read-out: Pre-emergence herbicidal activity (percentage phytotoxicity) LOLPE PRE
[5] = post-emergence, 360 h, Rate 250 g/ha, post-emergence, assessed visually 15 DAA, 100%=total damage, 0%=no damage, read-out: Post-emergence herbicidal activity (percentage phytotoxicity) ECHCG POST
[6] = pre-emergence, 480 h, Rate 250 g/ha, pre-emergence, assessed visually 20 DAA, 100%=total damage, 0%=no damage, read-out: Pre-emergence herbicidal activity (percentage phytotoxicity) ECHCG PRE
[7] = post-emergence, 360 h, Rate 250 g/ha, post-emergence, assessed visually 15 DAA, 100%=total damage, 0%=no damage, read-out: Post-emergence herbicidal activity (percentage phytotoxicity) AVEFA POST
[8] = pre-emergence, 480 h, Rate 250 g/ha, pre-emergence, assessed visually 20 DAA, 100%=total damage, 0%=no damage, read-out: Pre-emergence herbicidal activity (percentage phytotoxicity) AVEFA PRE
[9] = post-emergence, 360 h, Rate 250 g/ha, post-emergence, assessed visually 15 DAA, 100%=total damage, 0%=no damage, read-out: Post-emergence herbicidal activity (percentage phytotoxicity) ALOMY POST
[10] = pre-emergence, 480 h, Rate 250 g/ha, pre-emergence, assessed visually 20 DAA, 100%=total damage, 0%=no damage, read-out: Pre-emergence herbicidal activity (percentage phytotoxicity) ALOMY PRE
[11] = post-emergence, 360 h, 250 g/ha, post-emergence, 15 DAA, visual assessment (100%=total damage, 0%=no damage), read-out: Post-emergence herbicidal activity (percentage phytotoxicity) LOLPE POST
[12] = pre-emergence, 480 h, 250 g/ha, pre-emergence, 20 DAA, visual assessment (100%=total damage, 0%=no damage), read-out: Pre-emergence herbicidal activity (percentage phytotoxicity) LOLPE PRE
[13] = post-emergence, 360 h, 250 g/ha, post-emergence, 15 DAA, visual assessment (100%=total damage, 0%=no damage), read-out: Post-emergence herbicidal activity (percentage phytotoxicity) ECHCG POST
[14] = pre-emergence, 480 h, 250 g/ha, pre-emergence, 20 DAA, visual assessment (100%=total damage, 0%=no damage), read-out: Pre-emergence herbicidal activity (percentage phytotoxicity) ECHCG PRE
[15] = post-emergence, 360 h, 250 g/ha, post-emergence, 15 DAA, visual assessment (100%=total damage, 0%=no damage), read-out: Post-emergence herbicidal activity (percentage phytotoxicity) AVEFA POST
[16] = pre-emergence, 480 h, 250 g/ha, pre-emergence, 20 DAA, visual assessment (100%=total damage, 0%=no damage), read-out: Pre-emergence herbicidal activity (percentage phytotoxicity) AVEFA PRE
[17] = post-emergence, 360 h, 250 g/ha, post-emergence, 15 DAA, visual assessment (100%=total damage, 0%=no damage), read-out: Post-emergence herbicidal activity (percentage phytotoxicity) ALOMY POST
[18] = pre-emergence, 480 h, 250 g/ha, pre-emergence, 20 DAA, visual assessment (100%=total damage, 0%=no damage), read-out: Pre-emergence herbicidal activity (percentage phytotoxicity) ALOMY PRE

| SMILES | pest or weed control at 250 g/ha (Lolium perenne (LOLPE); [3]) [%] | pest or weed control at 250 g/ha (Lolium perenne (LOLPE); [4]) [%] | pest or weed control at 250 g/ha [1, 5] [%] | pest or weed control at 250 g/ha [1, 6] [%] | pest or weed control at 250 g/ha (Avena fatua (AVEFA); [7]) [%] | pest or weed control at 250 g/ha (Avena fatua (AVEFA); [8]) [%] | pest or weed control at 250 g/ha [2, 9] [%] | pest or weed control at 250 g/ha [2, 10] [%] | further results |
| --- | --- | --- | --- | --- | --- | --- | --- | --- | --- |
| C=Cc1cc(-c2ncc(F)cc2F)cc(C)c1C1C(=O)CC(CC(=O)NC(C)(C)C)C1=O (stereo not shown) [Compound B382, N-tert-butyl-2-[3-[4-(3,5-difluoro-2-pyridyl)-2-methyl-6-vinyl-phenyl]-2,4-dioxo-cyclopentyl]acetamide] |  |  |  |  |  |  |  |  | pest or weed control at 250 g/ha (Lolium perenne (LOLPE); post-emergence, 360 h, Rate 250 g/ha, post-emergence, visual assessment 15 DAA, 100%=total damage, 0%=no damage, read-out: Post-emergence herbicidal activity (percentage phytotoxicity) LOLPE POST): 100%; pest or weed control at 250 g/ha (Lolium perenne (LOLPE); pre-emergence, 480 h, Rate 250 g/ha, pre-emergence, visual assessment 20 DAA, 100%=total damage, 0%=no damage, read-out: Pre-emergence herbicidal activity (percentage phytotoxicity) LOLPE PRE): 60%; pest or weed control at 250 g/ha ([1]; post-emergence, 360 h, Rate 250 g/ha, post-emergence, visual assessment 15 DAA, 100%=total damage, 0%=no damage, read-out: Post-emergence herbicidal activity (percentage phytotoxicity) ECHCG POST): 100%; pest or weed control at 250 g/ha ([1]; pre-emergence, 480 h, Rate 250 g/ha, pre-emergence, visual assessment 20 DAA, 100%=total damage, 0%=no damage, read-out: Pre-emergence herbicidal activity (percentage phytotoxicity) ECHCG PRE): 60%; pest or weed control at 250 g/ha (Avena fatua (AVEFA); post-emergence, 360 h, Rate 250 g/ha, post-emergence, visual assessment 15 DAA, 100%=total damage, 0%=no damage, read-out: Post-emergence herbicidal activity (percentage phytotoxicity) AVEFA POST): 100%; pest or weed control at 250 g/ha (Avena fatua (AVEFA); pre-emergence, 480 h, Rate 250 g/ha, pre-emergence, visual assessment 20 DAA, 100%=total damage, 0%=no damage, read-out: Pre-emergence herbicidal activity (percentage phytotoxicity) AVEFA PRE): 40%; pest or weed control at 250 g/ha ([2]; post-emergence, 360 h, Rate 250 g/ha, post-emergence, visual assessment 15 DAA, 100%=total damage, 0%=no damage, read-out: Post-emergence herbicidal activity (percentage phytotoxicity) ALOMY POST): 100%; pest or weed control at 250 g/ha ([2]; pre-emergence, 480 h, Rate 250 g/ha, pre-emergence, visual assessment 20 DAA, 100%=total damage, 0%=no damage, read-out: Pre-emergence herbicidal activity (percentage phytotoxicity) ALOMY PRE): 60% |
| CC#Cc1cc(C)c(C2C(=O)CC(CC(=O)NC3CC3)C2=O)c(C)c1 (stereo not shown) [Compound A32] | 100 | 90 | 100 | 100 | 100 | 80 | 100 | 70 |  |
| C=CCCNC(=O)CC1CC(=O)C(c2c(C)cc(-c3ncc(Cl)cc3F)cc2C)C1=O (stereo not shown) [Compound A111] | 100 | 100 | 100 | 100 | 100 | 90 | 100 | 90 |  |
| Cc1cc(C)c(C2C(=O)CC(CC(=O)NCc3cccc(Br)c3)C2=O)c(C)c1 (stereo not shown) [Compound B23] |  |  |  |  |  |  |  |  | pest or weed control at 250 g/ha (Lolium perenne (LOLPE); [11]): 90%; pest or weed control at 250 g/ha (Lolium perenne (LOLPE); [12]): 100%; pest or weed control at 250 g/ha [1, 13]: 90%; pest or weed control at 250 g/ha [1, 14]: 90%; pest or weed control at 250 g/ha (Avena fatua (AVEFA); [15]): 70%; pest or weed control at 250 g/ha (Avena fatua (AVEFA); [16]): 60%; pest or weed control at 250 g/ha [2, 17]: 60%; pest or weed control at 250 g/ha [2, 18]: 70% |
| Cc1cc(-c2ncc(Cl)cc2F)cc(C)c1C1C(=O)CC(CC(=O)NCc2ccsc2)C1=O (stereo not shown) [Compound A130] | 100 | 90 | 100 | 100 | 100 | 90 | 90 | 70 |  |
| Cc1cc(-c2ncc(Cl)cc2F)cc(C)c1C1C(=O)CC(CC(=O)NCc2ccccc2F)C1=O (stereo not shown) [Compound A118] | 100 | 90 | 100 | 100 | 100 | 100 | 90 | 80 |  |
| Cc1cc(C)c(C2C(=O)CC(CC(=O)NC3=NOC(C)(C)C3)C2=O)c(C)c1 (stereo not shown) [Compound B42] |  |  |  |  |  |  |  |  | pest or weed control at 250 g/ha (Lolium perenne (LOLPE); [11]): 40%; pest or weed control at 250 g/ha (Lolium perenne (LOLPE); [12]): 0%; pest or weed control at 250 g/ha [1, 13]: 0%; pest or weed control at 250 g/ha [1, 14]: 0%; pest or weed control at 250 g/ha (Avena fatua (AVEFA); [15]): 60%; pest or weed control at 250 g/ha (Avena fatua (AVEFA); [16]): 0%; pest or weed control at 250 g/ha [2, 17]: 60%; pest or weed control at 250 g/ha [2, 18]: 0% |
| COCC#CC(C)(C)NC(=O)CC1CC(=O)C(c2c(C)cc(-c3ncc(Cl)cc3F)cc2C)C1=O (stereo not shown) [Compound A112] | 100 | 100 | 100 | 100 | 100 | 90 | 90 | 80 |  |
